Records with an inconclusive call do not appear. The source made the active and inactive calls. No rule for the calls is given here; tested in MIN6 cells.
Experiments:
[1] = GFP-wavelength compound autofluorescence in cells – imaging, high-content imaging, artefact control, dose response (AID 2124); details: cells, GFP-channel autofluorescence, high-content imaging, at 10 µM; for z-score: stronger effect = higher value;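 as to cell count: cells exposed to compound for 48 hours before fixing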;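 as to z-score: cells exposed to compound for 48 hours before fixing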
[2] = tested on: cells, GFP-channel autofluorescence, high-content imaging; assay: as above

Row | SMILES | cell count [1] | EC50 [2] | z-score [1]
1 | Cc1cc(N2CCCC2)ccc1/C=C1/C(=O)N(C)C(=S)N1C | 2940 cells | 7.11 µM | 
2 | CC(=O)n1c(C=Nc2ccccc2)c(O)c2ccccc21 | 3060 cells | 8.96 µM | 
3 | COc1ccc(C2C(C(C)=O)=C(C)N=c3s/c(=C\c4cc(C)n(C)c4C)c(=O)n32)c(OC)c1 (stereo unspecified) | 3650 cells | 6.06 µM | 
4 | CC(C)N1CC=C2C(C#N)=C(N)C(C#N)(C#N)[C@H](c3ccoc3)[C@H]2C1 | 2840 cells | 6.74 µM | 
5 | N#C/C(=C/c1ccc(N2CCCCC2)o1)c1cccc(F)c1 | 1730 cells | 5.32 µM | 
6 | C=CCN1C(=O)c2cccc3c(N4CCCCC4)ccc(c23)C1=O | 3300 cells | 6.64 µM | 
7 | Cc1ccc(CNc2ccc3c(c2)OCO3)cc1 | 2720 cells | 6.18 µM | 
8 | CN(C)c1nc(N)nc(/C(C#N)=C/C2CC3C=CC2C3)n1 (stereo unspecified) | 2780 cells |  | -0.33 (inactive)
9 | Cc1nc(NC(=O)COC(=O)CCS(=O)(=O)c2ccccc2Cl)c(Cl)cc1Cl | 3210 cells |  | -0.39 (inactive)
10 | COc1ccc(N=C2NC(=O)S/C2=C\c2ccc(N(C)C)cc2)cc1 | 2870 cells |  | -0.25 (inactive)
11 | C=CCNC(=O)/C(=C\c1ccc(Br)cc1)NC(=O)c1ccccc1OC | 3390 cells |  | -0.39 (inactive)
12 | N/C(=N\OC(=O)C1CCCCC1)c1cccc([N+](=O)[O-])c1 | 3090 cells |  | -0.33 (inactive)
13 | CC(/C=N/NC(=O)c1ccncc1)=C\c1ccc(C(C)C)cc1 | 2700 cells |  | -0.33 (inactive)
14 | C=CCn1c(=NC(=O)c2cc(-c3cccs3)nc3ccccc23)sc2cc(S(N)(=O)=O)ccc21 | 2770 cells |  | -0.33 (inactive)
15 | Cc1cc(NC(=O)/C(C#N)=C/c2ccc(-c3ccc(SC(F)F)cc3)o2)n(-c2ccccc2)n1 | 2190 cells |  | 0.3
16 | Nc1cccc2c1C(=O)N(C(=O)c1cccc(S(=O)(=O)N3CCCC3)c1)C2=O | 3320 cells |  | -0.39 (inactive)
17 | COc1ccccc1NC(=O)COC(=O)C1CC2C=CC1C2 (stereo unspecified) | 2990 cells |  | -0.25 (inactive)
18 | O=C(CC12CC3CC(CC(C3)C1)C2)NCC(=O)N1CCc2ccccc2C1 | 2920 cells |  | -0.33 (inactive)
19 | CCOC(=O)Cn1c2ccc(F)cc2c2nc(C)sc21 | 2900 cells |  | -0.39 (inactive)
20 | O=C1S/C(=C\c2ccc(N3CCOCC3)o2)C(=O)N1Cc1c(F)cccc1Cl | 1540 cells |  | 2.04
21 | CCOC(=O)CC1C(=O)NCCN1c1nc2c(C)cccn2c(=O)c1/C=C1\SC(=S)N(C(C)CC)C1=O (stereo unspecified) | 3100 cells |  | 0.45
22 | Cc1ccc(-c2ccc(/C=C(\C#N)C(=O)Nc3cc(C)nn3-c3ccccc3)o2)cc1 | 2460 cells |  | 1.66
23 | c1ccc2c(N3CCNCC3)nsc2c1 | 2010 cells |  | -0.39 (inactive)
24 | CCCCNc1ccc2c3c(cccc13)C(=O)N(CCCC)C2=O | 2720 cells |  | 3.41
25 | O=C(C1=C[C@H](C2CC2)C[C@H](OCCCCO)O1)N1CCN(Cc2ccccc2)CC1 | 2880 cells |  | -0.38 (inactive)
26 | CN1CCN(Cc2nc(N)nc(Nc3ccc4c(c3)OCCO4)n2)CC1 | 3330 cells |  | -0.39 (inactive)

Row | SMILES | cell count [1] | EC50 [2] | z-score [1]
27 | CN(C)S(=O)(=O)Oc1cccc(C(=O)Nc2ccc([N+](=O)[O-])cc2)c1 | 2460 cells |  | -0.33 (inactive)
28 | O=C(Nc1nnc(-c2ccccc2)o1)Nc1ccccc1Cl | 2750 cells |  | -0.39 (inactive)
29 | OC(COc1cccc2ccccc12)CN1CCN(c2ccccc2Cl)CC1 (stereo unspecified) | 3270 cells |  | -0.39 (inactive)
30 | COc1ccc(NC2=Nc3ccccc3N3C2=Nc2c(c(C)nn2-c2ccc(C)cc2)C3c2cccnc2)cc1 (stereo unspecified) | 2790 cells |  | -0.31 (inactive)
31 | CN1CCNC(=O)C1CC(=O)NCCC1=CCCCC1 (stereo unspecified) | 3160 cells |  | -0.38 (inactive)
32 | Cc1ccc(-n2c(C)nc3oc4ccccc4c(=O)c3c2=O)cc1 | 3180 cells |  | -0.33 (inactive)
33 | COc1ccc(C2C(C(=O)c3ccccc3)=C(C)Nc3nc4ccccc4n32)c(OC)c1 (stereo unspecified) | 3000 cells |  | -0.33 (inactive)
34 | COc1ccc(N(C(=O)Cc2cccs2)C2C=CS(=O)(=O)C2)cc1 (stereo unspecified) | 3350 cells |  | -0.39 (inactive)
35 | COc1cc2c(cc1OC)-c1nncn1C(C)(C)C2 | 3220 cells |  | -0.32 (inactive)
36 | COC(=O)c1cnn2c(C(F)(F)F)cc(-c3ccc(F)cc3)nc12 | 2980 cells |  | -0.33 (inactive)
37 | CCn1c(SCC(=O)c2c[nH]c3ccccc23)nc2cc(S(=O)(=O)N3CCOCC3)ccc21 | 3200 cells |  | -0.36 (inactive)
38 | CC(C)(C)C(=O)/C=c1\s/c(=C\c2ccc(-c3ccc([N+](=O)[O-])cc3)o2)c(=O)n1CC(=O)NC(N)=O | 3110 cells |  | 4.23
39 | CC1(C)Cc2c(c(-c3ccccc3)[nH]c(=O)c2C#N)CO1 | 3520 cells |  | -0.33 (inactive)
40 | CCCCCCn1c(O)c(C=Nc2ccccc2N2CCOCC2)c(=O)[nH]c1=S | 3050 cells |  | -0.37 (inactive)
41 | COCCNC(=S)N/N=C(\C)c1ccc2cc(OC)ccc2c1 | 2790 cells |  | -0.33 (inactive)
42 | Cc1cc(C)n(C(=O)CCC2COc3ccccc3O2)n1 (stereo unspecified) | 2940 cells |  | -0.25 (inactive)
43 | COc1ccc(NC(=O)c2[nH]c(C)c(C(C)=O)c2C)cc1Cl | 3410 cells |  | -0.33 (inactive)
44 | CCCN1C(=O)c2cccc3c(N4CCCCC4)ccc(c23)C1=O | 3300 cells |  | 0.28
45 | CN1C=CC2=C(C#N)C(N)C(C#N)(C#N)C(c3ccccc3)C2C1 (stereo unspecified) | 2840 cells |  | 0.32
46 | N#C/C(=C\c1ccc(N2CCOCC2)o1)c1nc2ccccc2[nH]1 | 2400 cells |  | 0.96
47 | CCCCC(=O)Nc1ccc2c(c1)nc1n2CCSC1 | 2870 cells |  | -0.38 (inactive)
48 | CCCCC1=CC2=C(c3ccco3)C(=O)C(C)(OC(=O)c3ccc(OC)cc3)C(=O)C2=CN1CC(C)C (stereo unspecified) | 2870 cells |  | -0.39 (inactive)
49 | COCCCNc1c2c3c(cccc3[nH]c1=O)C(=O)c1ccccc1-2 | 2800 cells |  | 1.79
50 | COc1ccc(N(CCN2C(=O)c3ccccc3C2=O)C(=O)c2cccc([N+](=O)[O-])c2)cc1 | 2790 cells |  | -0.25 (inactive)
51 | CC1=CN2C(=N)/C(=C/c3ccc([N+](=O)[O-])o3)C(=O)N=C2S1 | 348 cells |  | 0.75
52 | O=C1/C(=C/c2ccc(N3CCOCC3)o2)SC(=Nc2ccccc2)N1CCc1c[nH]c2ccccc12 | 192 cells |  | 2.67

Row | SMILES | cell count [1] | EC50 [2] | z-score [1]
53 | COc1ccc(-c2nnn(CC(=O)N(CCO)C(C(=O)NC3CCCC3)c3ccc(F)cc3)n2)cc1 (stereo unspecified) | 3200 cells |  | -0.33 (inactive)
54 | Nc1cc2nc3ccccc3nc2cc1N | 1390 cells |  | -0.37 (inactive)
55 | CCN(CC)C(=O)c1sc2nc(-c3cccs3)cc(-c3cccs3)c2c1N | 3420 cells |  | -0.2 (inactive)
56 | COc1ccccc1NS(=O)(=O)c1cc([N+](=O)[O-])ccc1N/N=C/c1sc(N2CCOCC2)nc1-c1ccccc1 | 2550 cells |  | 0.22
57 | CC(=O)Nc1nc(-c2ccc(Br)s2)cs1 | 3320 cells |  | -0.39 (inactive)
58 | Cc1ccc(Nc2nc3c([nH]2)c(=O)n(C)c(=O)n3C)cc1 | 2720 cells |  | -0.39 (inactive)
59 | CCN(CC)c1ccc2cc(-c3nnc(-c4ccccc4)o3)c(=O)oc2c1 | 3220 cells |  | 1.33
60 | COCCN(CCOC)Cc1cc(=O)oc2cc3c(cc12)CCC3 | 3160 cells |  | -0.38 (inactive)
61 | O=C1/C(=C/c2ccc(N3CCCC3)cc2)NC(=S)N1C1CC1 | 2770 cells |  | 0.41
62 | CCc1ccc(NC(=O)c2cc(C(C)C)on2)cc1 | 3050 cells |  | -0.39 (inactive)
63 | CC(=O)Cc1cc(O)c2ccccc2c1OC(=O)c1ccc(Br)cc1 | 2650 cells |  | -0.26 (inactive)
64 | N#CC1CC(c2ccc([N+](=O)[O-])cc2)=NN1c1ccc([N+](=O)[O-])cc1 (stereo unspecified) | 3490 cells |  | -0.25 (inactive)
65 | Cc1oc(C)c2c(=O)ccc3c(c12)OC(N)=C(C#N)C3c1ccccc1 (stereo unspecified) | 2830 cells |  | -0.38 (inactive)
66 | Cc1ccc(C2CC(=O)NC(SCc3ccccc3)=C2C#N)o1 (stereo unspecified) | 3270 cells |  | -0.33 (inactive)
67 | CC(=O)Nc1sc(/C(C#N)=C/c2ccc(Cl)c(Cl)c2)nc1-c1ccc(C)cc1 | 2880 cells |  | 1.08
68 | CC1CCCC(C2(O)C(=O)Nc3ccccc32)C1=O (stereo unspecified) | 3180 cells |  | -0.33 (inactive)
69 | Cc1cc(C)nc(SCSc2nc(C)cc(C)n2)n1 | 3370 cells |  | -0.38 (inactive)
70 | COc1ccc2cc3cc(C(=O)NCc4ccccn4)oc3nc2c1 | 3310 cells |  | -0.38 (inactive)
71 | C=CCN1C(=O)/C(=C/c2ccc(N3CCOCC3)o2)C(=O)NC1=S | 3270 cells |  | -0.32 (inactive)
72 | COc1ccc(C2C=C(c3cccs3)Nc3nc(CCCO)nn32)cc1 (stereo unspecified) | 2650 cells |  | -0.38 (inactive)
73 | Cc1csc(NC(=O)CN(C)S(=O)(=O)c2cccc3cccnc23)n1 | 3250 cells |  | -0.33 (inactive)
74 | CCOC(=O)N1CCN(C(=O)NC2CCCCC2)CC1 | 3150 cells |  | -0.38 (inactive)
75 | CCCCCCc1cc2cc(-c3nnc(-c4ccccc4OC)o3)c(=O)oc2cc1O | 2630 cells |  | -0.21 (inactive)
76 | CCOc1cc(N(CC)CC)ccc1/C=C(/C#N)c1nc2ccccc2[nH]1 | 1870 cells |  | 1.08
77 | N#C/C(=C/c1ccc(N2CCCCC2)o1)C(=O)Nc1ccc2ccccc2c1 | 3000 cells |  | 5.59
78 | O=C(NCc1cccs1)c1ccc(N2CCCCC2)nc1 | 2760 cells |  | -0.33 (inactive)

Reference: PubChem BioAssay AID2124 (Sanford-Burnham Center for Chemical Genomics, 2009)
